Measured values from ChEMBL document CHEMBL1909046, “DrugMatrix in vitro pharmacology data”.

Tests used:
[1] = target: T1, Progesterone receptor (Bos taurus, UniProt Q690N0); test: DRUGMATRIX: Progesterone radioligand binding (ligand: [3H] R-5020); type: tissue-based, Uterus; conditions: Not Active = under 50% inhibition at 10 µM
T1 sequence (Q690N0 whole entry): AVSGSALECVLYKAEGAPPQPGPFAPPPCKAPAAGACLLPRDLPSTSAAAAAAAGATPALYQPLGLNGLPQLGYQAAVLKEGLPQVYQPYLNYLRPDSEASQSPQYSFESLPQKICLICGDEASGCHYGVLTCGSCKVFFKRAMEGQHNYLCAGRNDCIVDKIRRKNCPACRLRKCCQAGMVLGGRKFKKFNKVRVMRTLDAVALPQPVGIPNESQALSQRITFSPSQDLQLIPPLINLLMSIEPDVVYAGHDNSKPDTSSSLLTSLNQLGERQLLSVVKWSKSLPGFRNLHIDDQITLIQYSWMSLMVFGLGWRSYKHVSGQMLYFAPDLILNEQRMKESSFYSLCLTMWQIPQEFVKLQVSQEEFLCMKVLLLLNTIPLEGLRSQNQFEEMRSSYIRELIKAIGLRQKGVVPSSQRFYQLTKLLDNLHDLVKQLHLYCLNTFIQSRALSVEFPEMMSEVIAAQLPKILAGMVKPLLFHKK

[2] = target: T2, Cytochrome P450 2A6 (Homo sapiens, UniProt P11509); conditions: bti-tn-5b1-4; also: in other assays of this panel Not Active means under 50% inhibition at 10 µM
T2 sequence (P11509 whole entry): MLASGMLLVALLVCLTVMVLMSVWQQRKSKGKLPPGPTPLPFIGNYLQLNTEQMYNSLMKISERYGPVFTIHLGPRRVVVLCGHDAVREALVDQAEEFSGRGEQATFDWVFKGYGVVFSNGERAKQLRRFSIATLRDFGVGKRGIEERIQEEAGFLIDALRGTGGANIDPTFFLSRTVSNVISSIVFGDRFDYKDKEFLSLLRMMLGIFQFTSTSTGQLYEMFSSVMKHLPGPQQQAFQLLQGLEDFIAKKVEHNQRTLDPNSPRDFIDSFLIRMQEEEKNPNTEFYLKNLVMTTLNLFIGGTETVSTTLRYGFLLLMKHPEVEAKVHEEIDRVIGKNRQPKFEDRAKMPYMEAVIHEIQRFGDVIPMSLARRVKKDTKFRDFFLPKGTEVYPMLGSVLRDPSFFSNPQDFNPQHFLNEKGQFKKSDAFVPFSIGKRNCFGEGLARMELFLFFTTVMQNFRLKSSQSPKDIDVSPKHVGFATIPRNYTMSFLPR

[3] = DRUGMATRIX: GABAA, Chloride Channel, TBOB radioligand binding (ligand: [3H] TBOB); type: cell membranes, Rattus norvegicus, Wistar, Cerebral cortex, Membrane; conditions: Not Active = under 50% inhibition at 10 µM
[4] = target: T3, B2 bradykinin receptor (Homo sapiens, UniProt P30411); type: cell membranes, Membrane; conditions: chem-1; also: in other assays of this panel Not Active means under 50% inhibition at 10 µM
T3 sequence (P30411 whole entry): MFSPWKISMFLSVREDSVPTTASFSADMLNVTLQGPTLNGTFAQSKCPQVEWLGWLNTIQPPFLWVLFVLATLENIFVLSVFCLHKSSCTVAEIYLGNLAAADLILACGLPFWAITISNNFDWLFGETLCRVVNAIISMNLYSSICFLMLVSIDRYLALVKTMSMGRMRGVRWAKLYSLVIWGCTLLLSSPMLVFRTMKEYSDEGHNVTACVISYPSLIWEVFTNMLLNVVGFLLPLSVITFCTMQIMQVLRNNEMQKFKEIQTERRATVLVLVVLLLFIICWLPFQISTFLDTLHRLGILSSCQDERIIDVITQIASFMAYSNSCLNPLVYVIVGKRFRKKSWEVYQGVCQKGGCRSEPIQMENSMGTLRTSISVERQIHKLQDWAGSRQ

[5] = target: Nitric oxide synthase 1 (Rattus norvegicus, UniProt P29476); type: tissue-based, Cerebellum; also: in other assays of this panel Not Active means under 50% inhibition at 10 µM
[6] = target: T4, Cholecystokinin receptor type A (Homo sapiens, UniProt P32238); type: cell membranes, Membrane; conditions: 1321-n1; also: in other assays of this panel Not Active means under 50% inhibition at 10 µM
T4 sequence (P32238 whole entry): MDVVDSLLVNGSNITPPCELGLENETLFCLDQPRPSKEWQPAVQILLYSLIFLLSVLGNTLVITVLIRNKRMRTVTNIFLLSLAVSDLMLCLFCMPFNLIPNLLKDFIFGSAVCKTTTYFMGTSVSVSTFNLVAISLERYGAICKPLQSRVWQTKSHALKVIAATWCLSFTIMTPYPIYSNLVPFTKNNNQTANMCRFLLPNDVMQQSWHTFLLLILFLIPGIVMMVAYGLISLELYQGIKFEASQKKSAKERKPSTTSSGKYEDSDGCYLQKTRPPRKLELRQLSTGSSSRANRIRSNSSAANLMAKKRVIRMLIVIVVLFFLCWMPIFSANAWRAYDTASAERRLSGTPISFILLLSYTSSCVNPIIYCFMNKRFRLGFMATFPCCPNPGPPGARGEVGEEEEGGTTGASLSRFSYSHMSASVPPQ

[7] = target: Mitogen-activated protein kinase 3 (Homo sapiens, UniProt P27361); test: DRUGMATRIX: Protein Serine/Threonine Kinase, ERK1 enzyme inhibition (substrate: Myelin Basic Protein); parameters: species or system Escherichia coli; conditions: Not Active = under 50% inhibition at 10 µM
Sequence of Mitogen-activated protein kinase 3 (P27361 whole entry): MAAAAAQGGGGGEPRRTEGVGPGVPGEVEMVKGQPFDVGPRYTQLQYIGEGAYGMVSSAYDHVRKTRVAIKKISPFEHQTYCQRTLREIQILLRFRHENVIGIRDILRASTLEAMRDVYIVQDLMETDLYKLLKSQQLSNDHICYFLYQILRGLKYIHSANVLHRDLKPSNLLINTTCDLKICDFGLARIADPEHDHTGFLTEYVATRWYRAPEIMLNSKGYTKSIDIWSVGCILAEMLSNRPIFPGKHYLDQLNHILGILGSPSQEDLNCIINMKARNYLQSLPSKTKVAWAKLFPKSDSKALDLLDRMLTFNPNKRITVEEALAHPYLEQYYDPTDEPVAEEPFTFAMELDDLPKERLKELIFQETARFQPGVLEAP

Sequence of Nitric oxide synthase 1 (P29476 whole entry): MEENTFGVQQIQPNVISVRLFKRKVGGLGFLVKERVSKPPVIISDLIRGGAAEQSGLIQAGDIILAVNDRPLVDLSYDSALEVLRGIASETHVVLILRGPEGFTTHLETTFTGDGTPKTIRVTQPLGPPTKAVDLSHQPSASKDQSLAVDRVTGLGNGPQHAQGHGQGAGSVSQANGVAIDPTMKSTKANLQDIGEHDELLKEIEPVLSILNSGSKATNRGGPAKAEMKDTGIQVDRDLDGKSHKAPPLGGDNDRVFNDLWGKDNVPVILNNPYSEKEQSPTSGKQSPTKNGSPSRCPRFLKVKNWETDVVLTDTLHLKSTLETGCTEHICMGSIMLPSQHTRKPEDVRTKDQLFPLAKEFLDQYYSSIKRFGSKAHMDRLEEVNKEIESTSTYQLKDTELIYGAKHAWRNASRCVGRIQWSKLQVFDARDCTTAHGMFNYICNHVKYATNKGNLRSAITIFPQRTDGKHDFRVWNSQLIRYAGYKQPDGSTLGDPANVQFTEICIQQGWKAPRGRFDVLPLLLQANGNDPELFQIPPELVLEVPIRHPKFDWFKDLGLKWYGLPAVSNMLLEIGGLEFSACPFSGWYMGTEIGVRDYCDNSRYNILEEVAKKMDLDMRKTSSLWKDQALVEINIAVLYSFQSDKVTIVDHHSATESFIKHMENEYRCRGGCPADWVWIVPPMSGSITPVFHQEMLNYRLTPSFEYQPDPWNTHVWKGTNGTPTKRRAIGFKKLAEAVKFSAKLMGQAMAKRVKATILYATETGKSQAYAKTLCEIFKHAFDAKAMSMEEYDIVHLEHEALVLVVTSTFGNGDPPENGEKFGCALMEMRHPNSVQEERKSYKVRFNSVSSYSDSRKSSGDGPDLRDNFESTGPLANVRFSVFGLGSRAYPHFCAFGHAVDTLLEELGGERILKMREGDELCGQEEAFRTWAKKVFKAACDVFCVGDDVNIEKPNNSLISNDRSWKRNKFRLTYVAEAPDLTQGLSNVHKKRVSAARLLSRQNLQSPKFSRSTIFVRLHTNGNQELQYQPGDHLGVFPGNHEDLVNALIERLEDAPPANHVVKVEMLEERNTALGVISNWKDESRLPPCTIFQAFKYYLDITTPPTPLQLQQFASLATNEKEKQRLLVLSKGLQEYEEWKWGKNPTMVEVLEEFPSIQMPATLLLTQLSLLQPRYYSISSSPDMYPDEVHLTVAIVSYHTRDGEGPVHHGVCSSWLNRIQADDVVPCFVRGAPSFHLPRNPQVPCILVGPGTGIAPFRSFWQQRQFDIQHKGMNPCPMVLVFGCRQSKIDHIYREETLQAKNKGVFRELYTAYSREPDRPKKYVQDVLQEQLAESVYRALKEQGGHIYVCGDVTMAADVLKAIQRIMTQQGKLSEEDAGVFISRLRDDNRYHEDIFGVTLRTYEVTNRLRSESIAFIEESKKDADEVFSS

Nc1nc2c(ncn2COC(CO)CO)c(=O)[nH]1 [GANCICLOVIR]
Not Active: IC50 [1] | IC50 [2] | Ki [2] | IC50 [3] | Ki [3] | IC50 [4] | IC50 [5] | IC50 [6] | IC50 [7]

COc1c(N2CCNC(C)C2)c(F)cc2c(=O)c(C(=O)O)cn(C3CC3)c12 (configuration not stated) [GATIFLOXACIN]
Not Active: IC50 [1] | IC50 [2] | Ki [2] | IC50 [3] | Ki [3] | IC50 [4] | IC50 [5] | IC50 [6] | IC50 [7]

CC1(C)[C@@H](O[C@H]2O[C@H](C(=O)O)[C@@H](O)[C@H](O)[C@H]2O[C@@H]2O[C@H](C(=O)O)[C@@H](O)[C@H](O)[C@H]2O)CC[C@]2(C)[C@H]3C(=O)C=C4[C@@H]5C[C@@](C)(C(=O)O)CC[C@]5(C)CC[C@@]4(C)[C@]3(C)CC[C@@H]12 [GLYCYRRHIZIN]
Not Active: IC50 [1] | IC50 [2] | Ki [2] | IC50 [3] | Ki [3] | IC50 [4] | IC50 [5] | IC50 [6] | IC50 [7]

COC1=CC(=O)C[C@@H](C)[C@]12Oc1c(Cl)c(OC)cc(OC)c1C2=O [GRISEOFULVIN]
Not Active: IC50 [1] | IC50 [2] | Ki [2] | IC50 [3] | Ki [3] | IC50 [4] | IC50 [5] | IC50 [6] | IC50 [7]

C/C=C1\[C@H]2C=C(C)C[C@]1(N)c1ccc(=O)[nH]c1C2 [HUPERZINE A]
Not Active: IC50 [1] | IC50 [2] | Ki [2] | IC50 [3] | Ki [3] | IC50 [4] | IC50 [5] | IC50 [6] | IC50 [7]

NS(=O)(=O)c1cc2c(cc1Cl)NCNS2(=O)=O [HYDROCHLOROTHIAZIDE]
Not Active: IC50 [1] | IC50 [2] | Ki [2] | IC50 [3] | Ki [3] | IC50 [4] | IC50 [5] | IC50 [6] | IC50 [7]

CN1CCC[C@H]1c1cccnc1 [NICOTINE]
Not Active: IC50 [1] | IC50 [2] | Ki [2] | IC50 [3] | Ki [3] | IC50 [4] | IC50 [5] | IC50 [6] | IC50 [7]

O=C1CN=C(c2ccccc2)c2cc([N+](=O)[O-])ccc2N1 [NITRAZEPAM]
Not Active: IC50 [1] | IC50 [2] | Ki [2] | IC50 [3] | Ki [3] | IC50 [4] | IC50 [5] | IC50 [6] | IC50 [7]

CNCCC=C1c2ccccc2CCc2ccccc21 [NORTRIPTYLINE]
Not Active: IC50 [1] | IC50 [2] | Ki [2] | IC50 [3] | Ki [3] | IC50 [4] | IC50 [5] | IC50 [6] | IC50 [7]

CC1COc2c(N3CCN(C)CC3)c(F)cc3c(=O)c(C(=O)O)cn1c23 (configuration not stated) [OFLOXACIN]
Not Active: IC50 [1] | IC50 [2] | Ki [2] | IC50 [3] | Ki [3] | IC50 [4] | IC50 [5] | IC50 [6] | IC50 [7]

Oc1cccc2cccnc12 [OXYQUINOLINE]
Not Active: IC50 [1] | IC50 [2] | Ki [2] | IC50 [3] | Ki [3] | IC50 [4] | IC50 [5] | IC50 [6] | IC50 [7]

CC(C)(S)[C@@H](N)C(=O)O [PENICILLAMINE]
Not Active: IC50 [1] | IC50 [2] | Ki [2] | IC50 [3] | Ki [3] | IC50 [4] | IC50 [5] | IC50 [6] | IC50 [7]

CC(=O)CCCCn1c(=O)c2c(ncn2C)n(C)c1=O [PENTOXIFYLLINE]
Not Active: IC50 [1] | IC50 [2] | Ki [2] | IC50 [3] | Ki [3] | IC50 [4] | IC50 [5] | IC50 [6] | IC50 [7]
